IC50 data for 30 compounds are collected here from patent EP4692061A1, “LOW-MOLECULAR-WEIGHT COMPOUND HAVING CEREBLON-BINDING ACTIVITY, AND USE THEREOF” (Aevis Bio, Inc., priority 2023, dated 2024).

A value given as a limit tells only on which side of the number the result lay.

In the test the target is cereblon (CRBN) (Homo sapiens, UniProt Q96SW2). In words: In vitro CRBN binding assay (AlphaScreen, competitive inhibition of the PROTAC assay). As to conditions: Table 1; AlphaScreen, PROTAC Optimization Kit for BET Bromodomain-Cereblon Binding; read-out: Alpha IC50. (In general: Alpha assays give light when donor and acceptor beads are brought close together.)

As for `O=C1CCC(c2cccc(NC(=O)c3ccc(Cl)c(Cl)c3)c2)C(=O)N1` (stereo not drawn) [AEV40137], the IC50 is 2.22 µM.
Regarding `O=C1CCC(c2cccc(NC(=O)c3c(Cl)cc(Cl)cc3Cl)c2)C(=O)N1` (stereo not drawn) [AEV40138], the IC50 is 0.8 µM.
On to `O=C1CCC(c2cccc(NC(=O)c3ccc(Cl)cc3)c2)C(=O)N1` (stereo not drawn) [AEV40139], for which the IC50 was determined as 2.12 µM.
In the case of `O=C1CCC(c2cccc(NC(=O)c3ccc(F)cc3)c2)C(=O)N1` (stereo not drawn) [AEV40140], the IC50 was found to be 1.83 µM.
Next, `Cc1ccc(C(=O)Nc2cccc(C3CCC(=O)NC3=O)c2)cc1` (stereo not drawn) [AEV40141]: 2.08 µM; `O=C1CCC(c2cccc(NS(=O)(=O)c3cccc(NC(=O)c4ccc(Cl)c(Cl)c4)c3)c2)C(=O)N1` (stereo not drawn) [AEV40142]: 0.98 µM.
`O=C1CCC(c2cccc(NS(=O)(=O)c3cccc(NC(=O)c4ccccc4)c3)c2)C(=O)N1` (stereo not drawn) [AEV40143]: the IC50 came out at 0.61 µM.
For `O=C1CCC(c2cccc(NC(=O)c3ccccc3Cl)c2)C(=O)N1` (stereo not drawn) [AEV40144], the IC50 came out at 0.96 µM.
In the case of `O=C1CCC(c2cccc(NC(=O)c3ccccc3F)c2)C(=O)N1` (stereo not drawn) [AEV40145], the 50% inhibitory concentration (IC50) came out at 1.03 µM.
As for `Cc1ccccc1C(=O)Nc1cccc(C2CCC(=O)NC2=O)c1` (stereo not drawn) [AEV40146], the figure is 1.1 µM; as for `Cc1cc(Cl)ccc1C(=O)Nc1cccc(C2CCC(=O)NC2=O)c1` (stereo not drawn) [AEV40147], 1.37 µM; as for `COc1cc(Cl)ccc1C(=O)Nc1cccc(C2CCC(=O)NC2=O)c1` (stereo not drawn) [AEV40148], 1.12 µM.
Next, `O=C1CCC(c2cccc(NS(=O)(=O)c3cccc(NC(=O)c4c(F)cccc4C(F)(F)F)c3)c2)C(=O)N1` (stereo not drawn) [AEV40149]: 1.5 µM; `O=C1CCC(c2cccc(NS(=O)(=O)c3cccc(NC(=O)c4ccc(Cl)cc4Cl)c3)c2)C(=O)N1` (stereo not drawn) [AEV40150]: 1.82 µM.
Next, `COc1ccccc1C(=O)Nc1cccc(S(=O)(=O)Nc2cccc(C3CCC(=O)NC3=O)c2)c1` (stereo not drawn) [AEV40151]: 0.34 µM; `O=C1CCC(c2cccc(NS(=O)(=O)c3cccc(NC(=O)c4ccccc4C(F)(F)F)c3)c2)C(=O)N1` (stereo not drawn) [AEV40152]: 0.72 µM.
On to `O=C1CCC(c2cccc(NS(=O)(=O)c3cccc(NC(=O)c4cc(F)c(F)cc4F)c3)c2)C(=O)N1` (stereo not drawn) [AEV40153], for which the IC50 came to 0.8 µM.
Turning to `O=C1CCC(c2cccc(NS(=O)(=O)c3cccc(NC(=O)c4ccccc4Br)c3)c2)C(=O)N1` (stereo not drawn) [AEV40155], the IC50 came out at 0.95 µM.
Take `O=C1CCC(c2cccc(NS(=O)(=O)c3cccc(NC(=O)c4c(F)cccc4F)c3)c2)C(=O)N1` (stereo not drawn) [AEV40156]: the IC50 came out at 1.25 µM.
For the compound `O=C1CCC(c2cccc(NS(=O)(=O)c3cccc(NC(=O)c4cccc(Br)c4)c3)c2)C(=O)N1` (stereo not drawn) [AEV40157], the IC50 stood at 0.73 µM.
Next, `O=C1CCC(c2cccc(NS(=O)(=O)c3cccc(NC(=O)c4cc(F)cc(F)c4F)c3)c2)C(=O)N1` (stereo not drawn) [AEV40158]: 0.71 µM; `O=C1CCC(c2cccc(NS(=O)(=O)c3cccc(NC(=O)c4c(Cl)ccc(Cl)c4F)c3)c2)C(=O)N1` (stereo not drawn) [AEV40159]: 1.49 µM.
Consider `CCOC(=O)/C=C/c1cc(C)ccc1C1CCC(=O)NC1=O` (stereo not drawn) [AEV40160], for which the concentration for half-maximal inhibition (IC50) is 2.92 µM.
As to `O=C1CCC(c2cccc(NC(=O)c3ccc(-c4ccccc4)cc3)c2)C(=O)N1` (stereo not drawn) [AEV40161], the IC50 is over 10 µM.
In the case of `O=C1CCC(c2cccc(NC(=O)c3cccc(-c4ccccc4)c3)c2)C(=O)N1` (stereo not drawn) [AEV40162], the IC50 came out at 2.15 µM.
As for `O=C1CCC(c2cccc(NS(=O)(=O)c3cccc(NCc4cc5ccccc5[nH]4)c3)c2)C(=O)N1` (stereo not drawn) [AEV40163], the figure is 1.43 µM; as for `O=C1CCC(c2cccc(NC(=O)c3ccc(F)cc3F)c2)C(=O)N1` (stereo not drawn) [AEV40164], 1.67 µM.
As to `Cc1ccc(C(=O)Nc2cccc(C3CCC(=O)NC3=O)c2)c(C)c1` (stereo not drawn) [AEV40165], the IC50 was found to be 0.93 µM.
As for `O=C1CCC(c2cccc(NC(=O)c3ccc(F)c(F)c3)c2)C(=O)N1` (stereo not drawn) [AEV40166], the figure is 2.52 µM; as for `O=C1CCC(c2cccc(NS(=O)(=O)c3cccc(NCc4ccc5[nH]ccc5c4)c3)c2)C(=O)N1` (stereo not drawn) [AEV40171], 1.28 µM.

A word on the IC50: it is the point on the concentration scale where inhibition reaches its midpoint.
